Assay results from patent US20240400549A1, “COMPOUNDS AND THEIR USES FOR TREATING NEURODEGENERATIVE DISEASE” (Academia Sinica, priority 2021, published 2024).

Experiments:
[1] = system: Neuro-2a cells; experiment: Cytotoxicity of compounds in Neuro-2a cells; format: cell-based, mouse; details: 5 μM concentration
[2] = system: YFP—C-TDP-43 transgenic C. elegans; experiment: Swimming (thrashing) body bend assay of YFP-C-TDP-43 transgenic C. elegans; format: in vivo; details: YFP—C-TDP-43 C. elegans, swimming in buffer, 30 seconds
Procedure: The YFP—C-TDP-43 transgenic strains of C. elegans generated in this study were IW33 [Psnb-l:C-TDP-43219-414-YFP (iwIs22)]. The strains of nematodes were maintained with standard procedure and grown at 20° C. as previously described (Zhang, T. et al. Hum. Mol. Genet. 2011, 20 (10), 1952). For all assays, the transgenic young two-day (80 hours) adults were used. For larvae synchronization, the eggs were isolated by lysing gravid adult worms with freshly prepared bleaching solution (0.5 mL 5 M NaOH with 1 mL bleach) and incubated in S buffer (recipe) for overnight. For drug treatments, compound I-1b and/or DMSO were solely or along with MG132 applied to fresh NGM plates prior to installing the synchronized C. elegans. The body bends of the corresponding treatment in a duration of 30 seconds of the various strains were documented through SMZ800N stereomicroscope equipped with a CCD camera (Nikon). A body bend was counted as the head of C. elegans travels across the mid-body in 1×PBS buffer. Then, the bending videos of C. elegans were analyzed by ImageJ with the wrMTrck plugin (Nussbaum-Krammer, C. I. et al. J. Vis. Exp. 2015, (95), 52321). […]
As YFP—C-TDP-43 readily forms cytosolic aggregates in nervous system, the YFP—C-TDP-43 aggregates both in the neuron processes and neuron bodies of the ventral cord were monitored. […]

CN(C)c1ccc(-c2nc3ccc(OCCOCCOCCNc4cccc5c4C(=O)N(C4CCC(=O)NC4=O)C5=O)cc3s2)cc1 (centres unmarked) [I-1b, 4-((2-(2-(2-((2-(4-(dimethylamino)phenyl)benzo[d]thiazol-6-yl)oxy)ethoxy)ethoxy)ethyl)amino)-2-(2,6-dioxopiperidin-3-yl)isoindoline-1,3-dione]
cytotoxicity comparing to mock group of Neuro-2a cells [1]: neglectable cytotoxicity
increase of bending frequency as compared to the DMSO control group [2]: 28%
